Key:
Type in all cases: physicochemical
[1] = Stability test of everolimus with hypromellose in ethanol:acetone (=9:1) (Reference Example 2); details: 10 mg everolimus with 150 mg hypromellose in 10 mL ethanol:acetone (=9:1), 25° C., up to 6 hours (FIG. 3)
Experimental: (§1) It is to be noted that, in the analysis using liquid chromatography (HPLC) in the present test examples, the measurement was carried out under the following conditions. • Measurement column: Zorbax Eclipse XDB-C18, Rapid resolution HT, 100 mm×4.6 mm, 1.8 μm • Detector: ultraviolet absorption spectrophotometer (measurement wavelength: 278 nm) • Column temperature: 45° C. • Mobile phase A: 0.1% formic acid; mobile phase B: methanol/acetonitrile=50/50
The stability test of everolimus comprising a water-soluble polymeric carrier in a mixed solution of ethanol and acetone (=9:1) was carried out. 10 mL of the mixed solution of ethanol and acetone (=9:1) was added to 150 mg of hypromellose (TC-5 E Type, manufactured by Shin-Etsu Chemical Co., Ltd.), and the obtained mixture was then stirred. To this mixture, 10 mg of everolimus was added, and the thus prepared mixture was then stored at 25° C.
(§2) The remaining amount of everolimus immediately after initiation of the storage test, and also 1 hour, 3 hours and 6 hours after initiation of the storage test was measured by high performance liquid chromatography (HPLC), and the peak area ratio of everolimus at each time point was then calculated.

[2] = Stability test of everolimus with hypromellose in an ethanol solution (Reference Example 3); details: 10 mg everolimus with 150 mg hypromellose and 15 mg anhydrous lactose in 10 mL ethanol, 25° C.; immediately after the production (FIG. 4)
Experimental: as §1
The stability test of everolimus comprising a water-soluble polymeric carrier in an ethanol solution was carried out. 10 mL of ethanol was added to 150 mg of hypromellose (TC-5 E Type, manufactured by Shin-Etsu Chemical Co., Ltd.), and the obtained mixture was then stirred. To this mixture, 10 mg of everolimus was added, followed by stirring, and thereafter, 15 mg of anhydrous lactose was added to the reaction mixture, and the obtained mixture was further stirred. The thus prepared mixture was stored at 25° C.
The remaining amount of everolimus immediately after initiation of the storage test, and also 0.75 hours and 2 hours after initiation of the storage test was measured by high performance liquid chromatography (HPLC), and the peak area ratio of everolimus at each time point was then calculated.

[3] = Stability test of everolimus in various mixed solvents (Reference Example 1); details: 1 mg/mL everolimus in ethanol/acetone mixed solvents, 25° C., up to 24 hours; when the ratio of ethanol is increased (FIG. 2)
Experimental: as §1
The stability test of everolimus in various mixed solvents was carried out. Various mixed solvents were each added to everolimus, and the prepared solutions each containing 1 mg/mL everolimus were then stored at 25° C.
as §2, with “3 hours, 6” for “3”, “24” for “6”, “calculated. The ratio of solvents used for each sample is shown in Table 2, and the results obtained by measuring the remaining ratio of everolimus are shown in FIG. 2.” for “calculated.”

stability of everolimus in mixture (in words) [1]: improved
remaining ratio of everolimus [2]: less than 96%
purity of everolimus in solution (trend in words) [3]: decreased
Compound: CO[C@H]1C[C@@H]2CC[C@@H](C)[C@@](O)(O2)C(=O)C(=O)N2CCCC[C@H]2C(=O)O[C@H]([C@H](C)C[C@@H]2CC[C@@H](OCCO)[C@H](OC)C2)CC(=O)[C@H](C)/C=C(\C)[C@@H](O)[C@@H](OC)C(=O)[C@H](C)C[C@H](C)/C=C/C=C/C=C/1C [everolimus, 40-O-(2-hydroxyethyl)rapamycin]
